{
  "source": "PubChem BioAssay AID328",
  "about": "(DTP/NCI, 2004)",
  "system": "BDF1 mice, P388 leukemia ip, median survival T/C",
  "assay": "NCI In Vivo Anticancer Drug Screen. Data for tumor model P388 Leukemia (intraperitoneal) in B6D2F1 (BDF1) mice",
  "conditions": "endpoint: median survival time, higher = longer survival",
  "method_in_brief": "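Transplantable tumour in mice; compound vs vehicle dosing; survival scored; ratio of treated to control reported.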",
  "key": {"[1]": {"conditions": "dose: 50.0 mg/kg/injection, schedule: Q04DX003 (ip), vehicle: saline with Tween-80"}, "[2]": {"conditions": "dose: 100.0 mg/kg/injection, schedule: Q04DX003 (ip), vehicle: saline with Tween-80"}, "[3]": {"conditions": "dose: 200.0 mg/kg/injection, schedule: Q04DX003 (ip), vehicle: saline with Tween-80"}, "[4]": {"conditions": "dose: 6.25 mg/kg/injection, schedule: Q01DX009 (ip), vehicle: saline"}, "[5]": {"conditions": "dose: 25.0 mg/kg/injection, schedule: Q01DX009 (ip), vehicle: saline"}, "[6]": {"conditions": "dose: 100.0 mg/kg/injection, schedule: Q01DX009 (ip), vehicle: saline"}},
  "note": "Where “and” joins values, the source holds several entries; their conditions need not be identical. Identical values can stand only once. Inconclusive results and toxic doses are left out.",
  "data": [
    {"compound": "CCCCNCCC(SS)c1ccc(Cl)cc1", "note": "(centres undefined)", "values": [
      {"measurement": "T/C", "setting": "[1]", "result": "104 % of control"},
      {"measurement": "T/C", "setting": "[2]", "result": "100 % of control"}
    ]},
    {"compound": "CC(C)SC(=O)C[Si](C)(C)C", "values": [
      {"measurement": "T/C", "setting": "[2]", "result": "166 % of control"},
      {"measurement": "T/C", "setting": "[3]", "result": "166 % of control"}
    ]},
    {"compound": "C1=CC(c2ccccc2)N2C(C(c3ccccc3)=N1)C2c1ccccc1", "note": "(centres undefined)", "values": [
      {"measurement": "T/C", "setting": "dose: 25.0 mg/kg/injection, schedule: Q04DX003 (ip), vehicle: saline with Tween-80", "result": "98 % of control"},
      {"measurement": "T/C", "setting": "[1]", "result": "94 % of control"},
      {"measurement": "T/C", "setting": "[2]", "result": "100 % of control"},
      {"measurement": "T/C", "setting": "[3]", "result": "103 % of control"}
    ]},
    {"compound": "O=c1cc(CCl)[nH]nc1CCl", "values": [
      {"measurement": "T/C", "setting": "dose: 14.5 mg/kg/injection, schedule: Q04DX003 (ip), vehicle: saline with Tween-80", "result": "166 % of control"},
      {"measurement": "T/C", "setting": "dose: 22.0 mg/kg/injection, schedule: Q04DX003 (ip), vehicle: saline with Tween-80", "result": "159 % of control"},
      {"measurement": "T/C", "setting": "dose: 33.0 mg/kg/injection, schedule: Q04DX003 (ip), vehicle: saline with Tween-80", "result": "151 % of control"},
      {"measurement": "T/C", "setting": "dose: 75.0 mg/kg/injection, schedule: Q04DX003 (ip), vehicle: saline with Tween-80", "result": "98 % of control"}
    ]},
    {"compound": "[O-][n+]1c(CCl)nc2cccc3c2c1-c1ccccc1-3", "values": [
      {"measurement": "T/C", "setting": "dose: 12.5 mg/kg/injection, schedule: Q01DX009 (ip), vehicle: saline with Tween-80", "result": "106 % of control"},
      {"measurement": "T/C", "setting": "dose: 25.0 mg/kg/injection, schedule: Q01DX009 (ip), vehicle: saline with Tween-80", "result": "111 % of control and 121 % of control (2×)"},
      {"measurement": "T/C", "setting": "dose: 50.0 mg/kg/injection, schedule: Q01DX009 (ip), vehicle: saline with Tween-80", "result": "121 % of control"},
      {"measurement": "T/C", "setting": "dose: 100.0 mg/kg/injection, schedule: Q01DX009 (ip), vehicle: saline with Tween-80", "result": "93 % of control"}
    ]},
    {"compound": "COC(=O)c1oc(C(=O)OC)c(OCc2ccccc2)c1OCc1ccccc1", "values": [
      {"measurement": "T/C", "setting": "dose: 50.0 mg/kg/injection, schedule: Q01DX001 (ip), vehicle: saline sonified", "result": "100 % of control"},
      {"measurement": "T/C", "setting": "dose: 100.0 mg/kg/injection, schedule: Q01DX001 (ip), vehicle: saline sonified", "result": "109 % of control"},
      {"measurement": "T/C", "setting": "dose: 200.0 mg/kg/injection, schedule: Q01DX001 (ip), vehicle: saline sonified", "result": "90 % of control"}
    ]},
    {"compound": "Clc1ccc(-c2cc[s+]s2)cc1", "values": [
      {"measurement": "T/C", "setting": "dose: 3.12 mg/kg/injection, schedule: Q01DX009 (ip), vehicle: water", "result": "94 % of control"},
      {"measurement": "T/C", "setting": "dose: 3.12 mg/kg/injection, schedule: Q04DX003 (ip), vehicle: water", "result": "111 % of control"},
      {"measurement": "T/C", "setting": "dose: 6.25 mg/kg/injection, schedule: Q01DX009 (ip), vehicle: water", "result": "110 % of control"},
      {"measurement": "T/C", "setting": "dose: 6.25 mg/kg/injection, schedule: Q04DX003 (ip), vehicle: water", "result": "100 % of control"},
      {"measurement": "T/C", "setting": "dose: 12.5 mg/kg/injection, schedule: Q01DX009 (ip), vehicle: water", "result": "119 % of control"},
      {"measurement": "T/C", "setting": "dose: 12.5 mg/kg/injection, schedule: Q04DX003 (ip), vehicle: water", "result": "97 % of control"},
      {"measurement": "T/C", "setting": "dose: 25.0 mg/kg/injection, schedule: Q01DX009 (ip), vehicle: water", "result": "119 % of control"},
      {"measurement": "T/C", "setting": "dose: 25.0 mg/kg/injection, schedule: Q04DX003 (ip), vehicle: water", "result": "96 % of control and 117 % of control"},
      {"measurement": "T/C", "setting": "dose: 50.0 mg/kg/injection, schedule: Q01DX009 (ip), vehicle: water", "result": "108 % of control"},
      {"measurement": "T/C", "setting": "dose: 50.0 mg/kg/injection, schedule: Q04DX003 (ip), vehicle: water", "result": "90 % of control and 100 % of control"},
      {"measurement": "T/C", "setting": "dose: 100.0 mg/kg/injection, schedule: Q04DX003 (ip), vehicle: water", "result": "98 % of control"}
    ]},
    {"compound": "COc1cc(NCCCCCCCNC(C)C)c2nccc(C)c2c1", "values": [
      {"measurement": "T/C", "setting": "dose: 3.13 mg/kg/injection, schedule: Q01DX009 (ip), vehicle: saline", "result": "105 % of control"},
      {"measurement": "T/C", "setting": "[4]", "result": "98 % of control and 115 % of control"},
      {"measurement": "T/C", "setting": "[5]", "result": "109 % of control and 116 % of control"}
    ]},
    {"compound": "Cn1ccoc1=NC1CCCCC1", "values": [
      {"measurement": "T/C", "setting": "[1]", "result": "100 % of control"},
      {"measurement": "T/C", "setting": "[2]", "result": "100 % of control"},
      {"measurement": "T/C", "setting": "[3]", "result": "109 % of control"}
    ]},
    {"compound": "CN(S(=O)(=O)CC(F)(F)F)S(=O)(=O)C(F)(F)F", "values": [
      {"measurement": "T/C", "setting": "[4]", "result": "100 % of control"},
      {"measurement": "T/C", "setting": "[5]", "result": "108 % of control"},
      {"measurement": "T/C", "setting": "[6]", "result": "100 % of control"}
    ]},
    {"compound": "CN(C)c1ccc(C(C[N+](=O)[O-])(c2ccc(N(C)C)cc2)c2ccc(N(C)C)cc2)cc1", "values": [
      {"measurement": "T/C", "setting": "dose: 100.0 mg/kg/injection, schedule: Q04DX003 (ip), vehicle: Klucel (hydroxypropylcellulose) (HPC)", "result": "100 % of control"},
      {"measurement": "T/C", "setting": "dose: 200.0 mg/kg/injection, schedule: Q04DX003 (ip), vehicle: Klucel (hydroxypropylcellulose) (HPC)", "result": "90 % of control"},
      {"measurement": "T/C", "setting": "dose: 400.0 mg/kg/injection, schedule: Q04DX003 (ip), vehicle: Klucel (hydroxypropylcellulose) (HPC)", "result": "100 % of control"}
    ]},
    {"compound": "OCCNCCNc1ccnc2cc(Cl)ccc12", "values": [
      {"measurement": "T/C", "setting": "dose: 12.5 mg/kg/injection, schedule: Q01DX009 (ip), vehicle: saline", "result": "102 % of control"},
      {"measurement": "T/C", "setting": "[5]", "result": "115 % of control"},
      {"measurement": "T/C", "setting": "dose: 50.0 mg/kg/injection, schedule: Q01DX009 (ip), vehicle: saline", "result": "116 % of control"},
      {"measurement": "T/C", "setting": "[6]", "result": "118 % of control"}
    ]},
    {"compound": "CCCCOC(=O)c1cccc(C(=O)OCCCC)c1Sc1ccccc1", "values": [
      {"measurement": "T/C", "setting": "dose: 50.0 mg/kg/injection, schedule: Q01DX009 (ip), vehicle: other", "result": "105 % of control"},
      {"measurement": "T/C", "setting": "dose: 100.0 mg/kg/injection, schedule: Q01DX009 (ip), vehicle: other", "result": "100 % of control"},
      {"measurement": "T/C", "setting": "dose: 200.0 mg/kg/injection, schedule: Q01DX009 (ip), vehicle: other", "result": "107 % of control"}
    ]}
  ]
}
